Holding throughout (experiment): inhibition of tumour cell growth, NCI panel, 48 h
In assay [1] the test system is ACHN.
The subject of assay [2] is CCRF-CEM.
Assay [3] concerns DU-145.
In assay [4] the test system is EKVX.
The subject of assay [5] is HCT-15.
For assay [6], the system named is HL-60.
The test system of assay [7] is HOP-92.
Assay [8] concerns IGROV-1.
In assay [9] the test system is K562.
In assay [10] the test system is M14.
In assay [11] the test system is MDA-MB-435.
The test system of assay [12] is MOLT-4.
Assay [13] concerns NCI-H522.
Assay [14] has as its system NCI/ADR-RES.
Assay [15] relates to OVCAR-8.
The subject of assay [16] is PC-3.
Assay [17] deals with RXF 393.
Assay [18] concerns SF-268.
In assay [19] the test system is SNB-19.
The test system of assay [20] is BT-549.

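Method: 48-hour compound exposure of cells in 96-well plates, five concentrations, linear interpolation of endpoints. The concentration for 50% growth inhibition is given as GI50.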 Active and inactive are the calls of the source. Cut-off read from the data, not from the text of the source: active = GI50 up to about 1.1 µM and inactive = higher. Where only a bound is given, the exact number is not on record here.

This note sets out measurements from ChEMBL document CHEMBL1201862, “PubChem BioAssay data set” (2004).

On to `Cc1ccc(S(=O)(=O)N/C(=C\C=C\c2ccccc2)C(=O)C(C)(C)C)cc1`, for which the GI50 is 58.5 µM (inactive) in [1]; > 100 µM (inactive) in assay [2]; > 100 µM (inactive) in [3]; > 100 µM (inactive) in assay [4]; over 100 µM in assay [5]; > 100 µM (inactive) in assay [6]. Besides, the GI50 in assay [7] is 22.7 µM (inactive); in assay [8], 50.5 µM (inactive); in assay [9], > 100 µM (inactive); in assay [10], > 100 µM (inactive); in assay [11], > 100 µM (inactive); in assay [12], > 100 µM (inactive). Also, the GI50 in [13] was 59 µM (inactive); in assay [14] it was 42.3 µM (inactive); in assay [15], 51.4 µM (inactive); in assay [16] it was 75.2 µM (inactive); in [17] it was 37.8 µM (inactive); in assay [18], 46.2 µM (inactive). The GI50 in [19] is 55.5 µM (inactive).
As to `Cc1[nH]c2ncn(N)c(=N)c2c1Cc1ccccc1`, the GI50 is > 100 µM (inactive) in [1]; > 100 µM (inactive) in [20]; > 100 µM (inactive) in assay [2]; > 100 µM (inactive) in [4]; over 100 µM in assay [5]; 17.8 µM (inactive) in [6]. Besides, the GI50 in assay [7] is 6.7 µM (inactive); in [8] it was 80.4 µM (inactive); in [9] it was > 100 µM (inactive); in [10] it was > 100 µM (inactive); in assay [11], 34.6 µM (inactive); in [12] it was > 100 µM (inactive). For the same molecule, the GI50 in [13] is 49.2 µM (inactive); in [14], 82 µM (inactive); in assay [15], > 100 µM (inactive); in [16] it was 30.6 µM (inactive); in [19], > 100 µM (inactive).
For `CC(C)[Si](OC1=CCCCCC12C(=O)N(C)c1ccccc12)(C(C)C)C(C)C` (stereo unspecified), the GI50 is 16.8 µM (inactive) in assay [1]; 17.1 µM (inactive) in assay [2]; 15 µM (inactive) in assay [3]; 17.7 µM (inactive) in assay [4]; 17.6 µM in [5]; 17.1 µM (inactive) in [6]. The GI50 is 16.5 µM (inactive) in [7]; 25.1 µM (inactive) in [8]; 24.1 µM (inactive) in assay [9]; 23.3 µM (inactive) in assay [10]; 25.1 µM (inactive) in assay [11]; 32.5 µM (inactive) in assay [12]. In addition, the GI50 in assay [13] was 16.9 µM (inactive); in assay [14], 18.8 µM (inactive); in [15] it was 21 µM (inactive); in [16] it was 25.5 µM (inactive); in assay [17] it was 8.77 µM (inactive); in [18], 18.4 µM (inactive). In addition, the GI50 in assay [19] is 14.9 µM (inactive).
With `COc1ccc(/N=C2\S/C(=N\C(=N\c3ccccc3)SCc3ccccc3)N(c3ccccc3)\C2=N/c2ccc(OC)cc2)cc1`, the GI50 in [20] was > 100 µM (inactive); in assay [2], > 100 µM (inactive); in assay [4] it was > 100 µM (inactive); in assay [5] it was over 100 µM; in assay [6], > 100 µM (inactive); in [7] it was > 100 µM (inactive). Also, the GI50 was > 100 µM (inactive) in assay [8]; > 100 µM (inactive) in [9]; 72.1 µM (inactive) in assay [10]; > 100 µM (inactive) in assay [12]; > 100 µM (inactive) in [15]; > 100 µM (inactive) in [16]. The GI50 in assay [17] and in [19] was > 100 µM (inactive) each time.
Consider `O=C1c2cc3c(cc2CC12Cc1ccccc1C2)CCC3`, for which the GI50 is 27.8 µM (inactive) in [1]; 30.5 µM (inactive) in assay [2]; 52 µM (inactive) in [3]; 29.9 µM (inactive) in assay [4]; 33.9 µM in assay [5]; 25.5 µM (inactive) in [6]. For the same molecule, the GI50 in assay [7] was 23.9 µM (inactive); in assay [8], 38.2 µM (inactive); in assay [9], 44.3 µM (inactive); in assay [10], 23.2 µM (inactive); in assay [11], 28.2 µM (inactive); in assay [12], 19.9 µM (inactive). Further, the GI50 is 27.4 µM (inactive) in assay [13]; 28.4 µM (inactive) in [14]; 21.2 µM (inactive) in [15]; 34 µM (inactive) in [16]; 22.1 µM (inactive) in [17]; 34.8 µM (inactive) in assay [18]. In [19], the GI50 was > 100 µM (inactive).
For `CN(C(=O)C1CCCCCC1=O)c1ccccc1Cl` (stereo unspecified), the GI50 in assay [1] was > 100 µM (inactive); in assay [20], > 100 µM (inactive); in assay [3], > 100 µM (inactive); in assay [4], > 100 µM (inactive); in assay [5], over 100 µM; in assay [7], > 100 µM (inactive). Further, the GI50 in [8], in assay [10], in assay [11], in assay [12], in [13] and in assay [14] was > 100 µM (inactive) each time. The GI50 in [15], in assay [17], in assay [18] and in assay [19] was > 100 µM (inactive) in each case.
With `COc1cc(OC)cc(Oc2nc3c(N)cc(C(F)(F)F)cc3nc2-c2ccccc2)c1`, the GI50 in assay [1] was 28.5 µM (inactive); in assay [20], > 100 µM (inactive); in assay [2], 12.8 µM (inactive); in assay [4] it was 25.5 µM (inactive); in [5], 18.1 µM; in assay [6], 16.6 µM (inactive). Besides, the GI50 was > 100 µM (inactive) in [7]; 21.8 µM (inactive) in assay [8]; 2.71 µM (inactive) in assay [9]; 49.3 µM (inactive) in assay [10]; 11.4 µM (inactive) in assay [11]; 9.27 µM (inactive) in assay [12]. Besides, the GI50 in assay [14] is 52.6 µM (inactive); in [15], 46.3 µM (inactive); in [16], 26.2 µM (inactive); in assay [17], 21.1 µM (inactive); in assay [18], 74.8 µM (inactive); in [19], 95.7 µM (inactive).
`Cc1ccc(C)c(COCCOCn2c(=O)[nH]c(=O)c3cc(Br)ccc32)c1`: the GI50 in [1] was > 100 µM (inactive); in assay [2] it was > 100 µM (inactive); in assay [3], 90.8 µM (inactive); in assay [4] it was > 100 µM (inactive); in assay [5] it was over 100 µM; in assay [6] it was > 100 µM (inactive). The GI50 was > 100 µM (inactive) in assay [7]; 60.3 µM (inactive) in assay [8]; > 100 µM (inactive) in assay [9]; > 100 µM (inactive) in assay [10]; > 100 µM (inactive) in assay [11]; > 100 µM (inactive) in [12]. Also, the GI50 in [13] is 62.4 µM (inactive); in assay [14], > 100 µM (inactive); in [15] it was 94.2 µM (inactive); in assay [16], > 100 µM (inactive); in assay [17] it was > 100 µM (inactive); in assay [18], 52.6 µM (inactive). In addition, the GI50 in assay [19] is > 100 µM (inactive).
